From patent US20200339544A1 (JOINT STOCK COMPANY "BIOCAD", priority 2017, published 2020)

Experiment: Permeability through monolayer of Caco-2 cells
Assay type: in vitro ADME
Conditions: human, Caco-2 monolayer; for Papp A→B at 2 h, 10 µM: pH 6.5 upper / pH 7.4 lower, 2 h at 37° C.; for efflux ratio at 2 h, 10 µM: Papp B-A/Papp A-B
Excerpt: 2) Assessment of permeability through monolayer of Caco-2 cells.
Assessment of permeability through the monolayer of Caco-2 cells allows to evaluate the ability of the candidate compounds to penetrate through biological membranes by active and passive transport.
Caco-2, the cells of the intestinal epithelium, had been cultured in transwell plate inserts with the filters (with pores of 0.4 μm, BD Falcon with High Density) for 21 days, and then the integrity of the monolayer were estimated with Lucifer Yellow (Sigma-Aldrich, USA) by standard protocol. When setting the A→B transfer (“intestinal lumen”—“blood stream” transfer), solutions of test substances were added in a buffer with pH 6.5 (HBSS, 10 mM HEPES, 15 mM glucose solution) with the concentration of 10 μM into the upper chamber; the lower chamber was filled with a buffer with pH 7.4 (HBSS, 10 mM HEPES, 15 mM Glucose, 1% BSA). When setting B→A transfer (“blood stream”—“intestinal lumen” transfer), the upper chamber was filled with the buffer with pH 6.5, and solutions of the test substances were added in the buffer with pH 7.4 at the concentration of 10 μM in the lower chamber. Propranolol was used as a control substance (as it has high permeability).
After incubating for 2 h at 37° C. under 5% CO2, the amounts of test substances were determined in the upper and lower chambers by HPLC using Agilent1200 chromatograph (Agilent, USA) with preliminary protein precipitation with acetonitrile. We used gradient elution (1 mL/min flow rate). We determined the areas of peaks corresponding to the compounds. On the basis of peak areas in the calibration standards we determined the concentration of compound in the initial solution and in the samples from the wells of the upper and lower chambers. Papp, permeability through the cell layer, was calculated using the following formula:
Papp=(C(t)*V)/(C(0)*t*Area), wherein
The value was calculated with the following formula:
efflux=Papp B-A/Papp A-B, wherein • Papp A-B—the volume of permeability in A→B test; • Papp B-A—he volume of permeability in B→A test.

Papp A→B at 2 h, 10 µM [×10⁻⁶ cm/s] | efflux ratio at 2 h, 10 µM | Compound
2.88 | 0.58 | C=CC(=O)Nc1cc(Nc2nccc(C(=O)c3ccc(F)cc3)n2)c(OC)cc1N(C)CCN(C)C [EGFR_3365_10, N-(2-((2-(dimethylamino)ethyl)(methyl)amino)-5-((4-(4-fluorobenzoyl)pyrimidin-2-yl)amino)-4-methoxyphenyl) acrylamide]
4.36 | 0.5 | C=CC(=O)Nc1cc(Nc2nccc(C(=O)c3ccc(OCCC)cc3)n2)c(OC)cc1N(C)CCN(C)C [EGFR_3365_30, N-(2-((2-(dimethylamino)ethyl)(methyl)amino)-4-methoxy-5-((4-(4-propoxybenzoyl)pyrimidin-2-yl)amino)phenyl)acrylamide]
4.9 | 1 | C=CC(=O)Nc1cc(Nc2nccc(C(=O)c3ccc(N4CCCC4)cc3)n2)c(OC)cc1N(C)CCN(C)C [EGFR_3365_63, N-(2-((2-(dimethylamino)ethyl)(methyl)amino)-4-methoxy-5-((4-(4-(pyrrolidin-1-yl)benzoyl)pyrimidin-2-yl)amino)phenyl)acrylamide]
5.8 | 1.1 | C=CC(=O)Nc1cc(Nc2nccc(C(=O)c3ccc(N4CCC4)cc3)n2)c(OC)cc1N(C)CCN(C)C [EGFR_3365_58, N-(5-((4-(4-(azetidin-1-yl)benzoyl)pyrimidin-2-yl)amino)-2-((2-(dimethylamino)ethyl)(methyl)amino)-4-methoxyphenyl)acrylamide]
2.2 | 1.49 | C=CC(=O)Nc1cc(Nc2nccc(C(=O)c3ccc(N4CCCCC4)cc3)n2)c(OC)cc1N(C)CCN(C)C [EGFR_3365_90, N-(2-((2-(dimethylamino)ethyl)(methyl)amino)-4-methoxy-5-((4-(4-(piperidin-1-yl)benzoyl)pyrimidin-2-yl)amino)phenyl)acrylamide]
5.1 | 1.6 | C=CC(=O)Nc1cc(Nc2nccc(C(=O)c3ccc(N(C)C)cc3)n2)c(OC)cc1N(C)CCN(C)C [EGFR_3365_73, N-(5-((4-(4-(dimethylamino)benzoyl)pyrimidin-2-yl)amino)-2-((2-(dimethylamino)ethyl) (methyl)amino)-4-methoxyphenyl)acrylamide]
3.5 | 1.5 | C=CC(=O)Nc1cc(Nc2nccc(C(=O)c3ccc(N(CC)CC)cc3)n2)c(OC)cc1N(C)CCN(C)C [EGFR_3365_72, N-(5-((4-(4-(diethylamino)benzoyl)pyrimidin-2-yl)amino)-2-((2-(dimethylamino)ethyl)(methyl)amino)-4-methoxyphenyl)acrylamide]
4.26 | 1.5 | C=CC(=O)Nc1cc(Nc2nccc(C(=O)c3ccc(OCC)cc3)n2)c(OC)cc1N(C)CCN(C)C [EGFR_3365_29, N-(2-((2-(dimethylamino)ethyl)(methyl)amino)-5-((4-(4-ethoxybenzoyl)pyrimidin-2-yl)amino)-4-methoxyphenyl) acrylamide]
3.7 | 1.1 | C=CC(=O)Nc1cc(Nc2nccc(C(=O)c3ccc(OC(C)C)cc3)n2)c(OC)cc1N(C)CCN(C)C [EGFR_3365_31, N-(2-((2-(dimethylamino)ethyl)(methyl)amino)-5-((4-(4-isopropoxybenzoyl)pyrimidin-2-yl)amino)-4-methoxyphenyl) acrylamide]
3.84 | 1.87 | C=CC(=O)Nc1cc(Nc2nccc(C(=O)c3ccc(OC)cc3)n2)c(OC)cc1N(C)CCN(C)C [EGFR_3365_28, N-(2-((2-(dimethylamino)ethyl)(methyl)amino)-4-methoxy-5-((4-(4-methoxybenzoyl)pyrimidin-2-yl)amino)phenyl)acrylamide]
5.5 | 1.8 | C=CC(=O)Nc1cc(Nc2nccc(C(=O)c3ccc(N4CC(OC)C4)cc3)n2)c(OC)cc1N(C)CCN(C)C [EGFR_3365_61, N-(2-((2-(dimethylamino)ethyl)(methyl)amino)-4-methoxy-5-((4-(4-(3-methoxyazetidin-1-yl)benzoyl)pyrimidin-2-yl)amino)phenyl)acrylamide]
1.94 | 0.98 | C=CC(=O)Nc1cc(Nc2nccc(C(=O)c3ccccc3Br)n2)c(OC)cc1N(C)CCN(C)C [EGFR_3365_12, N-(5-((4-(2-bromobenzoyl)pyrimidin-2-yl)amino)-2-((2-(dimethylamino)ethyl) (methyl)amino)-4-methoxyphenyl)acrylamide]

More lines, now with the values behind:

Compound | Papp A→B at 2 h, 10 µM [×10⁻⁶ cm/s] | efflux ratio at 2 h, 10 µM
C=CC(=O)Nc1cc(Nc2cc(C(=O)c3ccc(N(C)C)cc3)ccn2)c(OC)cc1N(C)CCN(C)C.O=C(O)C(F)(F)F [EGFR_3365_4, N-(5-((4-(4-(dimethylamino)benzoyl)pyridin-2-yl)amino)-2-((2-(dimethylamino)ethyl) (methyl)amino)-4-methoxyphenyl)acrylamide 2,2,2-trifluoroacetate] | 2.86 | 2
C=CC(=O)Nc1cc(Nc2cc(C(=O)c3ccccc3)ccn2)c(OC)cc1N(C)CCN(C)C [EGFR_3365_3, N-(5-((4-benzoylpyridin-2-yl)amino)-2-((2-(dimethylamino)ethyl)(methyl)amino)-4-methoxyphenyl)acrylamide] | 5.9 | 0.8
C=CC(=O)Nc1cc(Nc2nccc(C(=O)c3ccc(OC)cc3OCCC)n2)c(OC)cc1N(C)CCN(C)C [EGFR_3365_102, N-(2-((2-(dimethylamino)ethyl)(methyl)amino)-4-methoxy-5-((4-(4-methoxy-2-propoxybenzoyl)pyrimidin-2-yl)amino)phenyl)acrylamide] | 27.5 | 1.62
C=CC(=O)Nc1cc(Nc2nccc(C(=O)c3ccc(OCCCC)cc3)n2)c(OC)cc1N(C)CCN(C)C [EGFR_3365_66, N-(5-((4-(4-butoxybenzoyl)pyrimidin-2-yl)amino)-2-((2-(dimethylamino)ethyl)(methyl)amino)-4-methoxyphenyl)acrylamide] | 1.3 | 0.4
C=CC(=O)Nc1cc(Nc2cc(C(=O)c3ccc(OCCC)cc3)ccn2)c(OC)cc1N(C)CCN(C)C [EGFR_3365_50, N-(2-((2-(dimethylamino)ethyl)(methyl)amino)-4-methoxy-5-((4-(4-propoxybenzoyl)pyridin-2-yl)amino)phenyl)acrylamide] | 2 | 0.3
C=CC(=O)Nc1cc(Nc2cc(C(=O)c3ccc(OCC)cc3)ccn2)c(OC)cc1N(C)CCN(C)C [EGFR_3365_52, N-(2-((2-(dimethylamino)ethyl)(methyl)amino)-5-((4-(4-ethoxybenzoyl)pyridin-2-yl)amino)-4-methoxyphenyl) acrylamide] | 3 | 1.2
C=CC(=O)Nc1cc(Nc2cc(C(=O)c3ccc(N4CCCC4)cc3)ccn2)c(OC)cc1N(C)CCN(C)C [EGFR_3365_56, N-(2-((2-(dimethylamino)ethyl)(methyl)amino)-4-methoxy-5-((4-(4-(pyrrolidin-1-yl)benzoyl)pyridin-2-yl)amino)phenyl)acrylamide] | 1.8 | 1.7
C=CC(=O)Nc1cc(Nc2nccc(C(=O)c3ccccc3C(F)(F)F)n2)c(OC)cc1N(C)CCN(C)C [EGFR_3365, N-(2-((2-(dimethylamino)ethyl) (methyl)amino)-4-methoxy-5-((4-(2-(trifluoromethyl)benzoyl)pyrimidin-2-yl)amino)phenyl)acrylamide] | 5.28 | 1.29
C=CC(=O)Nc1cc(Nc2cc(C(=O)c3ccc(OC)cc3)ccn2)c(OC)cc1N(C)CCN(C)C [EGFR_3365_51, N-(2-((2-(dimethylamino)ethyl)(methyl)amino)-4-methoxy-5-((4-(4-methoxybenzoyl)pyridin-2-yl)amino)phenyl)acrylamide] | 3.2 | 1.7
C=CC(=O)Nc1cc(Nc2nccc(C(=O)c3cc4ccccc4n3C)n2)c(OC)cc1N(C)CCN(C)C [EGFR_3365_94, N-(2-((2-(dimethylamino)ethyl) (methyl)amino)-4-methoxy-5-((4-(1-methyl-1H-indole-2-carbonyl)pyrimidin-2-yl)amino)phenyl)acrylamide] | 6.54 | 0.86
C=CC(=O)Nc1cc(Nc2nccc(C(=O)c3ccc(N4CCC(N)CC4)cc3)n2)c(OC)cc1N(C)CCN(C)C [EGFR_3365_121, N-(5-((4-(4-(4-aminopiperidin-1-yl)benzoyl)pyrimidin-2-yl)amino)-2-((2-(dimethylamino)ethyl)(methyl)amino)-4-methoxyphenyl)acrylamide] | 1.87 | 0.87
